In experiment [1] the test system is Pseudoperonospora cubensis. In words: Example 4: inoculated cucurbits, spray treatments, visual % infection of leaves. It is filed as in vivo. The conditions noted are these: 28 days after first treatment. The text has this:
The results are compiled in Table 4 below. [table]

Experiment [2] concerns Botrytis cinerea. In words: Example 1: inoculated vine grapes cv. Riesling, spray treatments, visual % infection of racemes.
Method: (§1) Evaluation was carried out by visually determining the infected leaf areas in %.
Vine grapes of the cultivar “Riesling” were grown under standard conditions with adequate supply of water and nutrients. The test plants were inoculated with an aqueous spore suspension of Botrytis cinerea. […] For comparison, a part of the plants was sprayed with boscalid alone (used as the commercial product CANTUS®, BASF; dose rate per treatment: 1.2 kg/ha; diluted with water to 800 L/ha). […] 95 and 100 days after the first treatment (25 or 30 days after last treatment), the extent of the development of the disease was determined visually in % infection of the racemes.
In experiment [3] the test system is Bremia lactucae. In words: Example 23: inoculated lettuce, spray treatments, visual % infection of plant. The conditions noted are these: Boscalid (CANTUS 1 kg/ha) applications AB.
Method: as §1
The test plants were inoculated with an aqueous spore suspension of Bremia lactucae. […] For comparison, a part of the plants was sprayed with boscalid alone (used as the commercial product CANTUS®, BASF; dose rate per treatment: 1 kg/ha; diluted with water to 500 L/ha). […] 7 days after the last treatment, the extent of the development of the disease was determined visually in % infection of the plant.
For experiment [4], the system named is Monilinia laxa. In words: Example 7: inoculated stonefruit, spray treatments, visual % infection of plant.
Method: as §1
Stonefruit was grown under standard conditions with adequate supply of water and nutrients. The test plants were inoculated with an aqueous spore suspension of Monilinia laxa. […] Another part was sprayed both with boscalid and B. subtilis strain QST713. 5 and 11 days after the first treatment (0 or 6 days after last treatment), the extent of the development of the disease was determined visually in % infection of the plant.
Experiment [5] has as its system Sclerotinia sclerotiorum. In words: Example 11: inoculated beans, spray treatments, visual % infection of plants. The conditions noted are these: Boscalid (CANTUS 1.0 kg/ha) application A.
Method: as §1
Beans were cultivated and grown under standard conditions with adequate supply of water and nutrients. The test plants were inoculated with an aqueous spore suspension of Sclerotinia sclerotiorum. […] For comparison, a part of the plants was sprayed with boscalid alone (used as the commercial product CANTUS®, BASF; dose rate per treatment: 1.0 kg/ha; diluted with water to 500 L/ha). […] 28 and 35 days after the first treatment (0 or 7 days after last treatment), the extent of the development of the disease was determined visually in % infection of the plants.
For experiment [6], the system named is Venturia inequalis (VENTIN). In words: Example 18: field trial apple cv. Rubinette, natural infection, percent infected leaf area.
Method: The trial was conducted under field conditions. Established apple plants (cv. Rubinette) were grown under standard conditions with adequate supply of water and nutrients. The application was repeated 6 to 10 times (see below) with 7-14 days intervals applying single products or product mixtures. No other products or compounds were applied for pathogen control. […] VENTIN infection occurred naturally. Disease incidences were evaluated 6 days after 10th application (6 DAT(10)). Disease levels observed were rated in percent infected leaf area in the respective plot given as % attack.
In experiment [7] the test system is Botrytis cinirea (BOTRCI). In words: Example 16: field trial grapevine cv. Müller-Thurgau, natural infection, percent infected clusters.
Method: The trial was conducted under field conditions. Established grapevine plants (cv. Müller-Thurgau) were grown under standard conditions with adequate supply of water and nutrients. The application was repeated 4 to 9 times (see below) with 7-14 days intervals applying single products. No other products or compounds were applied for pathogen control. […] For comparison, a part of the plants was sprayed with dithianon alone (used as the commercial product DELAN®, Bayer CropScience; 0.75 kg/ha). […] BOTRCI infection occurred naturally. Disease incidences were evaluated 21 days after 9th application (21 DAT(9)). Disease levels observed were rated in percent infected clusters in the respective plot given as % attack.
The subject of experiment [8] is Plasmopara viticola (PLASVI). In words: Example 17: field trial grapevine cv. Müller-Thurgau, natural infection, percent infected leaf area and clusters. Particulars: for Attacked Leaf Area/Clusters 10 DAA(7): percent infected clusters; for Attacked Leaf Area/Clusters 4 DAA(9): percent infected leaf area.
Method: The trial was conducted under field conditions. Established grapevine plants (cv. Müller-Thurgau) were grown under standard conditions with adequate supply of water and nutrients.
The application was repeated 4 to 9 times (see below) with 7-14 days intervals applying single products. No other products or compounds were applied for pathogen control. […] For comparison, a part of the plants was sprayed with dithianon alone (used as the commercial product DELAN®, Bayer CropScience; 0.75 kg/ha). […] Another part was sprayed both with dithianon and B. subtilis strain QST713. PLASVI infection occurred naturally. Disease incidences were evaluated 10 days after 7th application (10 DAA(7)) and 4 days after 9th application (4 DAA(9)). Disease levels observed were rated in percent infected leaf area (4 DAA(9)) and in percent infected clusters (10 DAA(7)) in the respective plot given as % attack.
Experiment [9] has as its system Plasmopara viticola. In words: Example 3: inoculated vine grapes, spray treatments, visual % infection of racemes and leaves, severity and frequency. The conditions noted are these: Dithianon (DELAN WG 525 g/ha) applications ABCDEFGHI
Method: as §1
The test plants were inoculated with an aqueous spore suspension of Plasmopara viticola. […] Another part was sprayed both with dithianon and B. subtilis strain QST713. 67 and 73 days after the first treatment (4 or 10 days after last treatment), the extent of the development of the disease was determined visually in % infection of the racemes. 73 days after the first treatment (10 days after last treatment), the severity and the frequency of the infection on the racemes were determined visually [%]. 87 days after the first treatment (14 days after last treatment), the extent of the development of the disease was determined visually in % infection of the leaves.
The test system of experiment [10] is Sphaerotheca fuliginea. In words: Example 27: inoculated cucumbers, spray treatments, visual % infection of leaves. The conditions noted are these: 38 days after first treatment; Metrafenone (VIVANDO 0.3 L/ha) applications ABC.
Method: as §1
Cucumbers were cultivated and grown under standard conditions with adequate supply of water and nutrients. The test plants were inoculated with an aqueous spore suspension of Sphaerotheca fuliginea. […] For comparison, a part of the plants was sprayed metrafenone alone (used as the commercial product VIVANDO®, BASF; dose rate per treatment: 0.3 L/ha; diluted with water to 500 L/ha). […] 38 days after the first treatment, the extent of the development of the disease was determined visually in % infection of the leaves.
Experiment [11] concerns Erysiphe necator. In words: Example 29: inoculated grapes, spray treatments, visual % infection of clusters. Particulars: Metrafenone (VIVANDO 0.27 L/ha) applications ABCD.
Method: Grapes were grown under standard conditions with adequate supply of water and nutrients. The test plants were inoculated with an aqueous spore suspension of Erysiphe necator. […] For comparison, a part of the plants was sprayed with metrafenone alone (used as the commercial product VIVANDO®, BASF; dose rate per treatment: 0.27 L/ha; diluted with water to 800 L/ha). […] 11 days after the 6th application, the extent of the development of the disease was determined visually in % infection of the clusters.
For experiment [12], the system named is Leveillula taurica. In words: Example 10: inoculated peppers, spray treatments, visual % infection of leaves. The conditions noted are these: Metrafenone (VIVANDO 0.2 L/ha) applications AB.
Method: as §1
The test plants were inoculated with an aqueous spore suspension of Leveillula taurica. […] For comparison, a part of the plants was sprayed with metrafenone alone (used as the commercial product VIVANDO®, BASF; dose rate per treatment: 0.2 L/ha; diluted with water to 800 L/ha). […] 35 and 42 days after the first treatment (7 or 14 days after last treatment), the extent of the development of the disease was determined visually in % infection of the leaves.
For experiment [13], the system named is Sphaerotheca fuliginea. In words: Example 12: inoculated cucurbits, spray treatments, visual % infection of upperside of leaves. Particulars: 38 days after first treatment, Metrafenone (VIVANDO 0.2 L/ha) applications ABC. It is filed as in vivo. From the text:
The results are compiled in Table 12 below.

For experiment [14], the system named is Erysiphe necator (UNCINE). In words: Example 15: field trial grapevine cv. Müller-Thurgau, natural infection, percent infected clusters.
Method: The trial was conducted under field conditions. Established grapevine plants (cv. Müller-Thurgau) were grown under standard conditions with adequate supply of water and nutrients. The application was repeated 3 to 6 times (see below) with 14 days intervals applying single products. No other products or compounds were applied for pathogen control. […] For comparison, a part of the plants was sprayed with metrafenone alone (used as the commercial product VIVANDO®, BASF; 0.2 L/ha). […] UNCINE infection occurred naturally. Disease incidences were evaluated 6 days after 5th application (6 DAT(5)) and 15 days after 6th application (15 DAT(6)). Disease levels observed were rated in percent infected clusters in the respective plot given as % attack.
The subject of experiment [15] is Uncinula necator. In words: Example 2: inoculated vine grapes, spray treatments, visual % infection of racemes.
Method: Vine grapes were grown under standard conditions with adequate supply of water and nutrients. The test plants were inoculated with an aqueous spore suspension of Uncinula necator. […] For comparison, a part of the plants was sprayed with metrafenone alone (used as the commercial product VIVANDO®, BASF; dose rate per treatment: 0.02 Vol.-%; diluted with water to 800 L/ha). […] 85 and 91 days after the first treatment (15 or 21 days after last treatment), the extent of the development of the disease was determined visually in % infection of the racemes.
Experiment [16] concerns Uncinula necator. In words: Example 13: inoculated grapes, spray treatments, visual % infection of raceme and leaves. It is filed as in vivo. The text has this: The results are compiled in Table 13 below.
The test system of experiment [17] is Sphaerotheca fuliginea. In words: Example 9: inoculated melons, spray treatments, visual % infection of plant.
Method: as §1
Melons were cultivated and grown under standard conditions with adequate supply of water and nutrients. The test plants were inoculated with an aqueous spore suspension of Sphaerotheca fuliginea. […] For comparison, a part of the plants was sprayed with metrafenone alone (used as the commercial product VIVANDO®, BASF; dose rate per treatment: 0.2 L/ha; diluted with water to 500 L/ha). […] 27 and 34 days after the first treatment (1 or 8 days after last treatment), the extent of the development of the disease was determined visually in % infection of the plant.
The test system of experiment [18] is Cercospora beticola. In words: Example 8: inoculated sugar beets, spray treatments, visual % infection of plant.
Method: as §1
Sugar beets were cultivated and grown under standard conditions with adequate supply of water and nutrients. The test plants were inoculated with an aqueous spore suspension of Cercospora beticola. […] For comparison, a part of the plants was sprayed with pyraclostrobin alone (used as the commercial product HEADLINE®, BASF; dose rate per treatment: 0.6 L/ha; diluted with water to 400 L/ha). […] 46 and 53 days after the first treatment (7 or 14 days after last treatment), the extent of the development of the disease was determined visually in % infection of the plant.
Setting [19] is: Boscalid (CANTUS 1.2 kg/ha) applications AB.
The mark [20] stands for this setting: Boscalid (CANTUS 1.2 kg/ha) applications ABC.
Setting [21] is: Boscalid application A (pyraclostrobin/boscalid mixture PRISTINE 0.66 g/ha).
[22] abbreviates: Boscalid applications AB (pyraclostrobin/boscalid mixture PRISTINE 0.66 g/ha).
[23] abbreviates: Dithianon (DELAN 0.75 kg/ha) applications ABCD.
[24] abbreviates: Dithianon (DELAN 0.75 kg/ha) applications ABCDEFGHI
The mark [25] stands for this setting: Metrafenone (VIVANDO 0.2 L/ha) applications ABC.
Where [26] appears, read: Metrafenone (VIVANDO 0.2 L/ha) applications ABCDEF.
Where [27] appears, read: Metrafenone (VIVANDO 0.02 Vol.-%) applications ABC.
Setting [28] is: Metrafenone (VIVANDO 0.02 Vol.-%) applications ABCD.
[29] abbreviates: Metrafenone (VIVANDO 0.2 L/ha) applications ABCDE.
Setting [30] is: Metrafenone (VIVANDO 0.2 L/ha) applications ABCDEFG.
[31] abbreviates: Metrafenone (VIVANDO 0.2 L/ha) application A.
Where [32] appears, read: Metrafenone (VIVANDO 0.2 L/ha) applications AB.
Where [33] appears, read: Pyraclostrobin (HEADLINE 0.6 L/ha) application A.
The mark [34] stands for this setting: Pyraclostrobin (HEADLINE 0.6 L/ha) applications AB.
[35] abbreviates: Pyraclostrobin (HEADLINE 0.6 L/ha) applications ABC.

Molecules are shown by their SMILES.

Regarding `CCCCCCCCc1c(CC)nc2ncnn2c1N` [BAS 650, 5-ethyl-6-octyl-[1,2,4]triazolo[1,5-a]pyrimidine-7-ylamine], the “Attack on Leaves” value was found to be 7% in experiment [1] (BAS 650 (BAS 650 00F 1.2 L/ha) applications AB) and 6.2% in [1] (BAS 650 (BAS 650 00F 1.2 L/ha) applications ABC).

Regarding `O=C(Nc1ccccc1-c1ccc(Cl)cc1)c1cccnc1Cl` [Boscalid, boscalid], in [2] (setting [19]), the “Attack on Raceme 95 DAT” value turned out to be 35% and the “Attack on Raceme 100 DAT” value was 44%. Also, in [2] (setting [20]), the “Attack on Raceme 95 DAT” value is recorded as 28% and the “Attack on Raceme 100 DAT” value came to 36%. In experiment [3], the “Attack on Plant 7 DALT” value is reported as 14%. Further, in experiment [4] (setting [21]), the “Attack on Plant 5 DAT” value is reported as 1.8% and the “Attack on Plant 11 DAT” value turned out to be 36%. In addition, in [4] (setting [22]), the “Attack on Plant 5 DAT” value is listed as 1.8% and the “Attack on Plant 11 DAT” value is 29%. In addition, in experiment [5], the “Attack on Plant 28 DAT” value turned out to be 30% and the “Attack on Plant 35 DAT” value is 53%.

As to `N#Cc1sc2c(=O)c3ccccc3c(=O)c=2sc1C#N` [Dithianon, dithianon], in experiment [6] (Dithianon (DELAN 0.75 kg/ha) applications ABCDEF), the “Attacked Leaf Area 6 DAT10” value came out at 12%. For the same molecule, in experiment [6] (Dithianon (DELAN 0.75 kg/ha) applications ABCDEFGHIJ), the “Attacked Leaf Area 6 DAT10” value is reported as 7.3%. Besides, the “Attacked Clusters 21 DAT(9)” value in [7] (setting [23]) was determined as 12%. For the same molecule, the “Attacked Clusters 21 DAT(9)” value in [7] (setting [24]) is reported as 15%. In addition, in experiment [8] (setting [23]), the “Attacked Leaf Area/Clusters 10 DAA(7)” value came to 30% and the “Attacked Leaf Area/Clusters 4 DAA(9)” value was determined as 11%. In [8] (setting [24]), the “Attacked Leaf Area/Clusters 10 DAA(7)” value is on record as 25% and the “Attacked Leaf Area/Clusters 4 DAA(9)” value is on record as 7.5%. In addition, in experiment [9], the “Attack on Leaves 87 DAT” value came to 25%, the “Attack on Raceme 67 DAT” value turned out to be 34% and the “Attack on Raceme 73 DAT” value was found to be 48%. Further, in experiment [9] (infection on racemes), the “Frequency 73 DAT” value was determined as 37% and the “Severity 73 DAT” value is 7.5%.

As for `COc1cc(C)c(C(=O)c2c(OC)ccc(Br)c2C)c(OC)c1OC` [Metrafenone, metrafenone], the “Attack on Leaves” value in [10] is listed as 15%. For the same molecule, the “Attack on clusters 11 DAA (6)” value in [11] is on record as 25%. In addition, in experiment [12], the “Attack on Plant 35 DAT” value is reported as 22% and the “Attack on Plant 42 DAT” value is 43%. Further, the “Attack on Leaves” value in [13] amounted to 50%. Further, in experiment [14] (setting [25]), the “Attacked Clusters 6 DAT(5)” value was 7.9% and the “Attacked Clusters 15 DAT(6)” value came to 26%. In experiment [14] (setting [26]), the “Attacked Clusters 6 DAT(5)” value was 2.2% and the “Attacked Clusters 15 DAT(6)” value is on record as 4.2%. Moreover, in experiment [15] (setting [27]), the “Attack on Raceme 85 DAT” value stood at 26% and the “Attack on Raceme 91 DAT” value came to 32%. In addition, in experiment [15] (setting [28]), the “Attack on Raceme 85 DAT” value is 11% and the “Attack on Raceme 91 DAT” value stood at 14%. In experiment [16] (setting [29]), the “Attack on Leaves 76 DAT” value is reported as 4.3%, the “Attack on Leaves 90 DAT” value is given as 35%, the “Attack on Raceme 76 DAT” value came to 8.3% and the “Attack on Raceme 90 DAT” value was 43%. Also, in experiment [16] (setting [30]), the “Attack on Leaves 76 DAT” value is on record as 3.0%, the “Attack on Leaves 90 DAT” value was found to be 13%, the “Attack on Raceme 76 DAT” value is on record as 6.0% and the “Attack on Raceme 90 DAT” value is given as 22%. In experiment [17] (setting [31]), the “Attack on Plant 27 DAT” value amounted to 24% and the “Attack on Plant 34 DAT” value was determined as 32%. Also, in experiment [17] (setting [32]), the “Attack on Plant 27 DAT” value is reported as 9.2% and the “Attack on Plant 34 DAT” value was 14%.

Consider `COC(=O)N(OC)c1ccccc1COc1ccn(-c2ccc(Cl)cc2)n1` [Pyraclostrobin, pyraclostrobin], for which the “Attack on Plant 46 DAT” value in experiment [18] (setting [33]) was 11%; in experiment [18] (setting [34]), 4.7%; in experiment [18] (setting [35]) it was 2.7%. Further, the results for the “Attack on Plant 53 DAT” value in experiment [18] (setting [33]), in [18] (setting [34]) and in experiment [18] (setting [35]) were 17%, 5.7% and 3.7%, respectively.

For the origin of these results see US20140212401A1, “USE OF SYNTHETIC AND BIOLOGICAL FUNGICIDES IN COMBINATION FOR CONTROLLING HARMFUL FUNGI” (Bayer CropScience LP, priority 2009, published 2014).
